This note sets out measurements from patent US9232796B2, “Herbicidal compositions comprising 4-amino-3-chloro-5-fluoro-6-(4-chloro-2-fluoro-3-methoxyphenyl) pyridine-2-carboxylic acid or a derivative thereof and acetyl-CoA carboxylase (ACCase) inhibitors” (DOW AGROSCIENCES LLC, priority 2012, dated 2016).

What all share (test): Example VI in-water applied ternary mixtures, greenhouse, transplanted paddy rice weeds
The test system of one assay is SCPMA. The format is in vivo, Schoenoplectus maritimus (L.) Lye. On the procedure: (§1) Applications were made by injecting with a pipetter appropriate amounts of the application solutions, into the aqueous layer of the paddy. Control plants were treated in the same manner with the solvent blank. Applications were made so that all treated plant material received the same concentrations of acetone and crop oil concentrate.
The treated plants and control plants were placed in a greenhouse as described above and water was added as needed to maintain a paddy flood. After approximately 3 weeks the condition of the test plants as compared with that of the untreated plants was determined visually and scored on a scale of 0 to 100 percent where 0 corresponds to no injury or growth inhibition and 100 corresponds to complete kill.
Colby's equation was used to determine the herbicidal effects expected from the mixtures (Colby, S. R. 1967. Calculation of the synergistic and antagonistic response of herbicide combinations. Weeds 15:20-22.).
The following equation was used to calculate the expected activity of mixtures containing three active ingredients, A. B, and C: Expected=A+B+C−((A×B+A×C+B×C)/100)+(A×B×C/10000)

A further assay deals with CYPRO. The class given is in vivo, Cyperus rotundus L. On the procedure: Weed seeds or nutlets of the desired test plant species were planted in puddled soil (mud) prepared by mixing a shredded, non-sterilized mineral soil (50.5 percent silt, 25.5 percent clay, and 24 percent sand, with a pH of about 7.6 and an organic matter content of about 2.9 percent) and water at a 1:1 volumetric ratio. The prepared mud was dispensed in 365 mL aliquots into 16-ounce (oz.) non-perforated plastic pots with a surface area of 86.59 square centimeters (cm^2) leaving a headspace of 3 centimeters (cm) in each pot. Mud was allowed to dry overnight prior to planting or transplanting. Rice seeds were planted in Sun Gro MetroMix® 306 planting mixture, which typically has a pH of 6.0 to 6.8 and an organic matter content of about 30 percent, in plastic plug trays. Seedlings at the second or third leaf stage of growth were transplanted into 860 mL of mud contained in 32-oz. non-perforated plastic pots with a surface area of 86.59 cm^2 4 days prior to herbicide application. The paddy was created by filling the headspace of the pots with 2.5 to 3 cm of water. When required to ensure good germination and healthy plants, a fungicide treatment and/or other chemical or physical treatment was applied. The plants were grown for 4-22 days in a greenhouse with an approximate 14 hr. photoperiod which was maintained at about 29° C. during the day and 26° C. during the night. Nutrients were added as Osmocote® (19:6:12, N:P:K+minor nutrients) at 2 g per 16-oz. pot and 4 g per 32-oz. pot. Water was added on a regular basis to maintain the paddy flood, and supplemental lighting was provided with overhead metal halide 1000-Watt lamps as necessary. The plants were employed for testing when they reached the first through fourth true leaf stage.
Treatments consisted of the benzyl ester of 4-amino-3-chloro-5-fluoro-6-(4-chloro-2-fluoro-3-methoxy-phenyl)pyridine-2-carboxylic acid (Compound A), formulated as an SC (suspension concentrate), an ACCase inhibitor herbicide, and a third herbicidal component, each applied alone and in ternary combination. Forms of compound A were applied on an acid equivalent basis.
The ACCase inhibitor component was applied on an active ingredient basis and included cyhalofop-R-butyl formulated as Clincher® G and metamifop formulated as Metamifop EC. Other herbicidal components were applied on an active ingredient or acid equivalent basis depending on the compound and included penoxsulam formulated as Grasp® SC, bentazon sodium formulated as Basagran®, triclopyr […] (TEA) salt formulated as Grandstand® R, benzobicyclon formulated as Benzobicyclon, benfuresate formulated as Full Slot® WG, pyraclonil formulated as Pyraclon® Flowable, mefenacet (technical grade material), and pretilachlor (technical grade material).
Treatment requirements for each compound or herbicidal component were calculated based upon the rates being tested, the concentration of active ingredient or acid equivalent in the formulation, an application volume of 1 mL per component per pot, and an application area of 86.59 cm^2 per pot.
For formulated compounds, a measured amount was placed in an individual 100 or 200 mL glass vial and was dissolved in a volume of 1.25% (v/v) Agri-Dex® crop oil concentrate to obtain application solutions.
For technical grade compounds, a weighed amount was placed in an individual 100 to 200 mL glass vial and was dissolved in a volume of acetone to obtain concentrated stock solutions.
as §1
The treated plants and control plants were placed in a greenhouse as described above and water was added as needed to maintain a paddy flood. […]

A further assay relates to FIMMI. The class given is in vivo, Fimbristylis miliacea (L.) Vahl. An outline of the steps:
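Compound A (SC, acid-equivalent basis) alone or with cyhalofop-R-butyl or metamifop plus a third herbicide, injected into paddy water of greenhouse-grown transplanted rice and weeds at 1st–4th leaf stage (~29/26 °C). Visual injury scored 0–100% after ~3 weeks vs untreated; expected mixture effects by Colby's equation.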

In the case of `CCCCOC(=O)[C@@H](C)Oc1ccc(Oc2ccc(C#N)cc2F)cc1` [Cyhalofop-butyl, butyl(2R)-2-[4-(4-cyano-2-fluorophenoxy)phenoxy]propanoate, reference compound], the “Visual Weed Control (%) - 24 DAA SCPMA Obs” value in the assay on SCPMA (180 gai/ha) turned out to be 0%. The “Visual Weed Control (%) - 21 DAA CYPRO Obs” value in the assay on CYPRO (22.5 gai/ha) is 0%; in the assay with CYPRO (45 gai/ha), 0%; in the assay on CYPRO (Table 69, 90 gai/ha, 21 DAA) it was 0%; in the assay with CYPRO (Table 69, 180 gai/ha, 21 DAA), 0%; in the assay on CYPRO (Table 70, 180 gai/ha, 21 DAA), 0%. In addition, the “Visual Weed Control (%) - 24 DAA CYPRO Obs” value with CYPRO (90 gai/ha) and in the assay on CYPRO (180 gai/ha) was 0% in each case. The “Visual Weed Control (%) - 21 DAA FIMMI Obs” value came to 33% with FIMMI (22.5 gai/ha); 0% in the assay with FIMMI (22.5 gai/ha, second set); 0% with FIMMI (45 gai/ha); 0% with FIMMI (45 gai/ha, first set); 0% in the assay on FIMMI (45 gai/ha, second set). In addition, the “Visual Weed Control (%) - 24 DAA FIMMI Obs” value in the assay on FIMMI (90 gai/ha) is given as 0%; with FIMMI (180 gai/ha), 20%; with FIMMI (Table 67, 180 gai/ha, 24 DAA) it was 20%.

For the compound `COc1c(Cl)ccc(-c2nc(C(=O)OCc3ccccc3)c(Cl)c(N)c2F)c1F` [Compound A Benzyl Ester, benzyl ester of 4-amino-3-chloro-5-fluoro-6-(4-chloro-2-fluoro-3-methoxy-phenyl)pyridine-2-carboxylic acid], the “Visual Weed Control (%) - 24 DAA SCPMA Obs” value in the assay with SCPMA (4 gae/ha), in the assay with SCPMA (8 gae/ha) and in the assay on SCPMA (16 gae/ha) was 0% throughout. The “Visual Weed Control (%) - 21 DAA CYPRO Obs” value in the assay on CYPRO (2.19 gae/ha) is reported as 0%; in the assay with CYPRO (Table 69, 4 gae/ha, 21 DAA), 3%; with CYPRO (Table 69, 8 gae/ha, 21 DAA), 33%; in the assay on CYPRO (Table 70, 4 gae/ha, 21 DAA) it was 3%; in the assay on CYPRO (Table 70, 8 gae/ha, 21 DAA), 33%. The “Visual Weed Control (%) - 24 DAA CYPRO Obs” value in the assay with CYPRO (4 gae/ha) is recorded as 40%; in the assay with CYPRO (8 gae/ha) it was 60%; in the assay with CYPRO (16 gae/ha), 85%. Moreover, the “Visual Weed Control (%) - 21 DAA FIMMI Obs” value in the assay with FIMMI (1.09 gae/ha) is reported as 8%; in the assay with FIMMI (1.09 gae/ha, first set) it was 8%; in the assay with FIMMI (2.19 gae/ha), 33%; in the assay with FIMMI (2.19 gae/ha, first set), 33%; in the assay on FIMMI (4 gae/ha, second set), 62%. The “Visual Weed Control (%) - 24 DAA FIMMI Obs” value in the assay on FIMMI (4 gae/ha) is listed as 0%; with FIMMI (8 gae/ha) it was 50%; in the assay with FIMMI (16 gae/ha), 30%; in the assay on FIMMI (Table 67, 4 gae/ha, 24 DAA), 0%; in the assay on FIMMI (Table 67, 8 gae/ha, 24 DAA), 50%; in the assay on FIMMI (Table 67, 16 gae/ha, 24 DAA), 30%.
